Reference: US9005670B2, “Use of histone acetyltransferase inhibitors as novel anti-cancer therapies” (The Johns Hopkins University, priority 2010, dated 2015)

Tests used:
[1] = test system: cyclin A in melanoma cells; assay: cyclin A protein expression, Western blot; type: cell-based; conditions: 10-20 μM C646
Excerpt: FIGS. 19A and 19B show the effects of p300/CBP HAT inhibition on cyclin A protein expression in melanoma cells.
Cyclin A is involved in two cell cycle checkpoints. Cyclin A associates with cdk2 to promote S phase progression, and then it associates with cdc2 during the G2 phase.

Sas2/4/5 complex = biological target: T1, Sas2/4/5 complex (Saccharomyces cerevisiae, UniProt P40963); assay: SAS complex direct radioactive HAT assay; type: biochemical; conditions: 10 μM compound; read-out: Percent inhibition of acetyltransferase, Sas
T1 construct: made in house; host or cells: E. coli BL21-CodonPlus(DE3)-RIL
Protocol: PCAF reactions were performed in 100 mM HEPES, pH 7.9, and contained 200 μM TPP, 5 mM MgCl2, 1 mM DTT, 50 mM NaCl, 0.05 mg/mL BSA, 200 μM NAD, 2.4 mM α-KG, 30 μM acetyl-CoA, 0.037 units α-KGDH, 3.3% DMSO, and 10 μM inhibitor. Reactions took place at 30° C. Reactions were initiated by addition of 10 nM PCAF and were followed at 340 nm over the linear portion of the curve below 10% turnover. AANAT reactions were performed in 100 mM NH4 OAc, pH 6.8, and contained 200 μM TPP, 5 mM MgCl2, 1 mM DTT, 50 mM NaCl, 0.05 mg/mL BSA, 200 μM NAD, 2.4 mM α-KG, 200 μM AcCoA, 0.1 units α-KGDH, 3.3% DMSO, and 10 μM inhibitor. Reactions took place at 25° C. Reactions were initiated with addition of 65 nM AANAT, and followed at 340 nm, as above. Percent inhibition values were compared to those with p300, which were repeated using the protocol given above. […]
HAT assays with yeast GCN5, SAS complex, MOZ, and Rtt109/Vps75 complex used the direct radioactive assay described above. […] The amount of enzyme used in each assay was estimated by comparing Coomassie Blue staining of samples with bovine serum albumin standards, analyzed by SDS-PAGE. […] The rate of ^14C-incorporation into histone H3 was quantified by autoradiography. […]

[2] = biological target: AANAT (arylalkylamine N-acetyltransferase) (Ovis aries, UniProt Q29495); assay: AANAT coupled spectrophotometric assay; type: biochemical; conditions: 10 μM compound; read-out: Percent inhibition of acetyltransferase, AANAT
[3] = test system: NCI-60 panel of tumor cell lines; assay: NCI-60 DTP human tumor cell line screen; type: cell-based; conditions: 48 hours
Protocol: The in vitro cancer screen was performed at the National Cancer Institute as described in detail at http://dtp.nci.nih.gov/branches/btb/ivelsp.html.
Briefly, cells were plated in 96 well plates at a concentration of 5,000-40,000 cells/well. […] Using the absorbance measurements [time zero, (Tz), control growth, (C), and test growth in the presence of drug at the five concentration levels (Ti)], the percentage growth was calculated at each of the drug concentrations levels. Percentage growth inhibition was calculated as: [(Ti−Tz)/(C−Tz)]×100 for concentrations for which Ti≧Tz [(Ti−Tz)/Tz]×100 for concentrations for which Ti<Tz where Tz is time zero, C is control growth, and Ti is test growth in the presence of drug at the five concentration levels.

[4] = test system: histone H3 and H4 acetylation in C3H 10T1/2 mouse fibroblasts; assay: histone acetylation Western blot in mouse cells; type: cell-based; conditions: 25 μM, 1-3 hours
Excerpt: Histones in mammalian cells show characteristic rates of turnover of acetylation, with a majority showing slower rates and a very minor fraction showing very fast turnover. This latter fraction has been associated with gene activation, and is defined by rapid hyperacetylation in the presence of deacetylase inhibitors such as Trichostatin A (TSA). In addition to SDS gels (FIG. 9A), Acid-Urea gels (AU, FIG. 9B) were used, on which loss of a positive charge upon lysine acetylation retards migration, producing a ladder of bands corresponding to integral changes in acetylation.
C3H 10T1/2 mouse fibroblasts were grown in DMEM with 10% FCS at 37° C. with 5% CO2. Confluent cultures were rendered quiescent in DMEM with 0.5% FCS for 18-20 h prior to treatment. […] Antibodies were used at the following concentrations: total H3 (1:10000; ab7834; Abcam); H4K12ac (1:2500; 06-761; Upstate). Rabbit anti-H3K9ac (1:10000) antibodies were generated in-house. Histones were isolated from cells by acid extraction, separated by SDS and acid-urea polyacrylamide gel electrophoresis and analyzed by Western blotting.

[5] = biological target: PCAF (p300/CBP-associated factor) (Homo sapiens, UniProt Q92831); assay: PCAF coupled spectrophotometric assay; type: biochemical; conditions: 10 μM compound; read-out: Percent inhibition of acetyltransferase, PCAF
WM35 melanoma cells = assay: apoptosis, annexin V and propidium iodide FACS; type: cell-based, human; conditions: 72 hours, low serum concentrations
Protocol: FIG. 14A includes scatter plots. […] WM35 melanoma cells were also treated with camptothecin as a positive control for apoptosis. FIGS. 14B and 14C include images of the treated cells stained for senescence-associated beta galactosidase.

Sequence of PCAF (p300/CBP-associated factor) (Q92831 493-658 limits assumed, species assumed): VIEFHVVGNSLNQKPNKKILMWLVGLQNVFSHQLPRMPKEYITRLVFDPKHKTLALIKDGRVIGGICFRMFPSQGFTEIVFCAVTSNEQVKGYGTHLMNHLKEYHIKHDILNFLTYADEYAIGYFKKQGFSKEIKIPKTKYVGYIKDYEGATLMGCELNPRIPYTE
Sequence of AANAT (arylalkylamine N-acetyltransferase) (Q29495 whole entry): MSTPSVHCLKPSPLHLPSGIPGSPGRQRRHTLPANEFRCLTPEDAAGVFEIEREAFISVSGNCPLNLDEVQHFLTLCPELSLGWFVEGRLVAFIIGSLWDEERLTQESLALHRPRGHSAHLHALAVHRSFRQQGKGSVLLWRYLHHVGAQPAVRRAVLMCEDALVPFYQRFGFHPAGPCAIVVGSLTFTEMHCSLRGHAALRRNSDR
T1 sequence (P40963 whole entry): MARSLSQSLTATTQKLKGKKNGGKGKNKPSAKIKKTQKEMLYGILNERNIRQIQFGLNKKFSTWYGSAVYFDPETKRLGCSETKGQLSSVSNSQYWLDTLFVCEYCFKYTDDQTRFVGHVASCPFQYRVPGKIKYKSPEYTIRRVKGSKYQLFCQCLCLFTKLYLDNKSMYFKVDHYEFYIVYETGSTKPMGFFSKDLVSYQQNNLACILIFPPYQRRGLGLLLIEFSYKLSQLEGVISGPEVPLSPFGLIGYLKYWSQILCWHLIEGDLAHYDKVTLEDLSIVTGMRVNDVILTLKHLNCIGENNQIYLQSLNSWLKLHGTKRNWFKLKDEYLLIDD
T1 sequence (Q04003 whole entry partner): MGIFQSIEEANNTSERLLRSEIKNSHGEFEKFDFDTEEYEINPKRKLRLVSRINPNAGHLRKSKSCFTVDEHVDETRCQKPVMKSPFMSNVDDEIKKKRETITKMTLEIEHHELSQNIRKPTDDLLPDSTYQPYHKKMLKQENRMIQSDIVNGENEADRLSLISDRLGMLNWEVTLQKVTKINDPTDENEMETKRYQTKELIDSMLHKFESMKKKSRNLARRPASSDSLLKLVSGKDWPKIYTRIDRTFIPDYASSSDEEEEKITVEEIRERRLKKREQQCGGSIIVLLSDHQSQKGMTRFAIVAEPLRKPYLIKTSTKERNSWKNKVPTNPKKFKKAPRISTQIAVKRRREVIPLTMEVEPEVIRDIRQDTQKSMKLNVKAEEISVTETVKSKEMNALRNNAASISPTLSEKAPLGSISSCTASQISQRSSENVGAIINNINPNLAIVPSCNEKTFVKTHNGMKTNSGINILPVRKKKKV
T1 sequence (Q99314 whole entry partner): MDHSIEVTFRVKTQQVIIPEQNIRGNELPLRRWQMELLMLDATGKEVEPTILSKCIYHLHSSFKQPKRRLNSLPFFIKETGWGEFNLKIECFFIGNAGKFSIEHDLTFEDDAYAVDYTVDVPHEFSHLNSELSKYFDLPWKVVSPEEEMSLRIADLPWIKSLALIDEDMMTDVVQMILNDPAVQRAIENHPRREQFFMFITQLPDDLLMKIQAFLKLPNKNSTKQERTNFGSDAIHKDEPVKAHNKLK

inhibition at 10 µM (Sas2/4/5 complex): < 10%
inhibition at 10 µM [2]: < 10%
inhibition at 10 µM [5]: < 10%
Structure (SMILES): CC1=NN(c2ccc(C(=O)O)cc2)C(=O)C1=Cc1ccc(-c2cc(C)c(C)cc2[N+](=O)[O-])o1 [Compound C646, 4-(4,5-dihydro-3-methyl-4-((5-(4,5-dimethyl-2-nitrophenyl)furan-2-yl)methylene)-5-oxopyrazol-1-yl)benzoic acid]
cyclin A protein level [1]: decreases after C646 treatment in a dose-dependent fashion
growth inhibition / cell death [3]: significant growth inhibition and/or tumor cell death
basal acetylation levels of H3 and H4 [4]: slightly diminished
TSA-inducible acetylation of histones H3 and H4 ([4]; TSA 33 nM final 30 min): virtually completely inhibited
apoptosis (WM35 melanoma cells): induced WM35 cell apoptosis
